Patent US11224223B2, “Feeding deterrence of pests such as Hemiptera, Lepidoptera and Coleoptera” (BEDOUKIAN RESEARCH, INC., priority 2012, dated 2022)

Tests used:
Format in all cases: in vivo
granary weevils = experiment: Granary weevil test on treated wheat kernels; details: 5% in isopropyl alcohol, 3 week period
Experimental: Ten replicates of 30 kernels of wheat were immersed into the test compound and allowed to dry for 24 hours. The grains were then transferred to a test container, and 10 granary weevils were released. Test containers were secured and left for a 3 week period. At the end of this time, the wheat grains were examined for developing larvae and damage by larvae. […] Ten additional replicates treated with isopropyl alcohol were prepared to serve as controls.

saw tooth grain beetles = experiment: Repellency of test compounds on grain beetles, treated corn kernels; details: 5% in isopropyl alcohol, 3 week period
Experimental: Ten replicates of 30 kernels of corn are immersed into the test compound and allowed to dry for 24 hours. The kernels are then transferred to a test container, and 10 saw tooth grain beetles are released. Test containers are secured and left for a 3 week period. At the end of this time, the […] grains are examined for feeding damage. […] Ten additional replicates treated with isopropyl alcohol are prepared to serve as controls.

Codling Moth larvae = experiment: Repellency as feeding deterrence and mortality in Codling Moth larvae on treated media
Experimental: Another test was designed to measure the repellency as feeding deterrence in Codling Moth larvae. The treatment was applied to the surface of a proprietary laboratory media in a tray with wells for each compound. The media was allowed to dry for 30-60 minutes so that larvae were not exposed to it as a liquid. One first instar codling moth larva was then placed on the treated media. The cover film was placed on the tray to prevent escapes. Ten additional replicates treated with a 57% ethanol solution were prepared to serve as controls. […] After the 24 hour reading, the larvae were extracted from the media to record any mortality.
Mortality observations were also made for the above protocol. The control was the 57% ethanol:43% water solution.

Aphis gossypii = experiment: Melon aphid repellency on leaf choice assays; details: 3% compound in a Triton X:Water solution; n=100; control 50/50
Description: Melon Aphid Repellency on Leaf Choice Assays Aphis gossypii are maintained on squash plants. Individual aphids (n=100) are given the choice between leaves with and without repellent treatments. A separate group of aphids are given a choice between untreated vs. untreated leaves as a control. The number of aphids choosing each leaf is counted both choice tests. The number of aphids choosing each treatment is compared to the control to determine the repellent effect.

psyllids = experiment: Psyllid repellency on potato choice assays; details: 3% compound; potato plants; 100 psyllids per cage; control 50/50
Description: Psyllid Repellency on Potato Choice Assays
(§1) Potato plants are sprayed with either a 3% solution of repellent chemical in a 5%:95% ETOH:Water or only 5%:95% ETOH:Water as a control. Two plants are placed in a screen cage, either a treatment vs control tree or a control vs control tree, 100 psyllids are released into each cage. The number of psyllids choosing each leaf is counted for both choice tests. The number of psyllids choosing each treatment is compared to the control to determine if there is a repellent effect.

sharpshooters = experiment: Leafhopper repellency on citrus choice assays; details: 3% compound; citrus seedlings; 100 sharpshooters per cage; control 50/50
Description: as §1, with “Leafhopper Repellency on Citrus Choice Assays Citrus seedlings” for “Potato plants”, “seedlings” for “plants”, “tree.” for “tree,”, “sharpshooters” for “psyllids”

[1] = test system: Euschistus heros-Neotropical Brown Stink Bugs; experiment: Stink bug feeding damage on soybean pods; details: 3% compound, soybean plants at R6 stage, 48 hours
Experimental: To compare the feeding/resting preference of stink bug adults for different plant parts, 10 pots with soybean plants at the R6 (pod-filling) stage of development are used. 5 pots of soybeans are sprayed with 3% of treatment in a 2% Triton X:water solution and 5 pots of soybean are treated with 2% Triton X:water solution as controls. Thirty stink bugs are placed individually in each cage and allowed to feed for 48 hours. Insects are removed and plant parts are collected for visual analysis of damage. Feeding damage on the pods is counted for both treatments. The selective antifeeding rate (%) formula is [(C−T)/(C+T)]×100, and the non-selective antifeeding rate (%) formula is [(C−T)/C)]×100, where C and T are the numbers of feeding damages on the control and treated plant pods, respectively.

[2] = test system: Leptinotarsa decemlineata-Colorado Potatoe Beetles; experiment: Choice feeding assay on potato leaf disks; details: 3% compound, larvae, 24 h
Experimental: For choice feeding assays, 3% alcohol solutions of the tested compounds are prepared. Disks (4.0 cm in diameter) are cut from potato leaves and are dipped in the test solutions or alcohol alone as a control. After the complete evaporation of the solvent, the disks are offered to 10 larvae. Control and treated disks are placed at alternate corners in Petri dishes (150 by 20 mm) lined with moistened filter paper (choice test). All dishes are placed in an incubator. Four replicates and 40 larva are used for each chemical. In each replicate, the insects are allowed to feed ad libitum for 24 h at 24 C under a 16:8 (L:D) photoperiod. After 24 h, the remaining uneaten area of each potato leaf disk is measured using a scanner and software. The selective antifeeding rate (%) formula is [(C−T)/(C+T)]×100, and the non-selective antifeeding rate (%) formula is [(C−T)/C)]×100, where C and T are the areas consumed by the control and treated leaf disks, respectively.

Popillia japonica = experiment: Japanese beetle feeding damage on basil; details: 3% compound; basil leaf disks; adult beetle; 24 h
Experimental: Japanese Beetle Feeding Damage on Basil For choice feeding assays, 3% alcohol solutions of the tested compounds are prepared. Disks (4.0 cm in diameter) are cut from basil leaves and are dipped in the test solutions or alcohol alone as a control. After the complete evaporation of the solvent, the disks are offered to 1 adult beetle. All dishes are placed in an incubator. Four replicates are used for each chemical. After 24 h, the remaining uneaten area of each basil leaf disk is measured using a scanner and software. The selective antifeeding rate (%) formula is [(C−T)/(C+T)]×100, and the non-selective antifeeding rate (%) formula is [(C−T)/C)]×100, where C and T are the areas consumed by the control and treated leaf disks, respectively.

Dermestid spp. = experiment: Dermestid beetle feeding damage on silk fabric; details: 3% compound; undyed silk disks; late instar larvae; 1 week
Experimental: Dermestid Beetle Feeding Damage on Silk Fabric
For feeding assays, 3% alcohol solutions of the tested compounds are prepared. Disks (4.0 cm in diameter) of undyed silk fabric are dipped in the test solutions or alcohol alone as a control. After the complete evaporation of the solvent, the disks are offered to 10 late instar larvae. All dishes are placed in an incubator. Four replicates are used for each chemical. After 1 week, the remaining uneaten area of each silk disk is measured using a scanner and software. The selective antifeeding rate (%) formula is [(C−T)/(C+T)]×100, and the non-selective antifeeding rate (%) formula is [(C−T)/C)]×100, where C and T are the areas consumed by the control and treated silk disks, respectively.

Tineola spp. = experiment: Clothes moth feeding damage on silk fabric, choice test; details: 3% compound; silk disks; late instar larvae; 24 hours; control 50/50
Experimental: For feeding assays, 3% alcohol solutions of the tested compounds are prepared. Disks (2.0 cm in diameter) of undyed silk fabric are dipped in the test solutions or alcohol alone as a control. After the complete evaporation of the solvent, the disks are presented in a choice test to 10 late instar Tineola spp. larvae. All dishes are placed in an incubator in the dark. Four replicates are used for each chemical. After 24 hours, the number of individuals choosing to feed on each disk are counted.

Plodia interpunctella = experiment: Feeding repellent assay for Indian meal moth larva on treated rice; details: 10% compound in a 5% Ethanol:95% water solution, third instar larvae, 1 week
Experimental: (§2) Feeding Repellent Assay for Indian Meal Moth Larva One gram of rice is weighed and treated with 2% by weight of each test chemical or ethanol as a control for each treatment and replicate. The grains are allowed to dry and then weighed again. Treated or control rice grains are placed in a petri dish. Third instar larvae are starved for 8 h and gently introduced into the center of each compartment. 20 larva are screened per treatment, and each experiment is repeated three times. The weight of rice grains is measured again after 1 week. The selective antifeeding rate (%) formula is [(C−T)/(C+T)]×100, and the non-selective antifeeding rate (%) formula is [(C−T)/C)]×100, where C and T are the areas consumed by the control and treated leaf disks, respectively.

Sitostroga cerealella = experiment: Feeding repellent assay for Angoumois larva on treated rice; details: 10% compound in a 5% Ethanol:95% water solution, third instar larvae, 1 week
Experimental: Feeding Repellent Assay for Angoumois Larva
as §2, with “One” for “Feeding Repellent Assay for Indian Meal Moth Larva One”

[3] = test system: brown marmorated stink bugs (BMSB); experiment: Repellency as feeding deterrence in brown marmorated stink bugs, treated filter paper with green bean; details: compound at 3.5% in a 57% Ethanol:43% water solution; control 38%
Experimental: A test was designed to measure the repellency as feeding deterrence in brown marmorated stink bugs (BMSB). Five replicates of 5 BMSBs were introduced into test arenas, containing one 60 mm×15 mm Petri dish with treated filter papers in which a food source (green bean) was attached, at the start of the test. The small Petri dishes containing the treated filter paper and food source were covered with a fitted Petri dish lid in between observation times, and were removed 5 minutes before each observation time to prevent stink bugs from feeding until sated. The distribution of the BMSBs was observed and documented hourly for 5 hours.

Structure (SMILES) | Increased Mortality over Control Mortality (granary weevils) | Increased Repellency vs. Control Repellency (granary weevils) | Increased Repellency vs. Control Repellency (saw tooth grain beetles) | Repellency at 24 hours (Codling Moth larvae; compound at 3.5% in a 57% Ethanol:43% water solution, first instar larva, control 8%) | Increased Mortality over Control Mortality at 24 hours (Codling Moth larvae; in vivo) | Number of Aphids Choosing each Treatment: Treated (Aphis gossypii) | Number of Aphids Choosing each Treatment: Untreated (Aphis gossypii) | Number of Psyllids Choosing each Treatment: Treated (psyllids) | Number of Psyllids Choosing each Treatment: Untreated (psyllids) | Number of Psyllids Choosing each Treatment: Treated (sharpshooters) | Number of Psyllids Choosing each Treatment: Untreated (sharpshooters) | % Antifeedent Activity [1] | % Repellency [2] | % Repellency (Popillia japonica) | % Repellency (Dermestid spp.) | Individuals choosing to feed on each disk: Treated (Tineola spp.) | Individuals choosing to feed on each disk: Untreated (Tineola spp.) | % Antifeedent Activity (Plodia interpunctella) | % Antifeedent Activity (Sitostroga cerealella) | Repellency averaged over 5 hours [3]
CC1=CC(O)CC(CC(C)C)C1 (centres unmarked) [3-Methyl-5-Isobutyl-2-Cyclohexenol] | 93% | 86% | 85% |  |  |  |  |  |  |  |  |  |  |  |  |  |  |  |  | 
CCCC1CC(=O)C=C(C)C1 (centres unmarked) [3-Methyl-5-Propyl-2-Cyclohexenone] | 57% | 66% | 60% | 21% | 1% |  |  |  |  |  |  |  |  |  |  |  |  |  |  | 
CCCCCCCCCC1CCC(=O)O1 (centres unmarked) [Gamma Tridecalactone] |  | 40% | 40% |  |  | 20 | 80 | 20 | 80 | 20 | 80 | 80% | 40% | 40% | 40% | 10 | 90 | 70% | 70% | 
CCCCCC1C(=O)CCC1CC(=O)OC (centres unmarked) [Methyl Dihydrojasmonate] |  |  |  |  |  | 30 | 70 | 30 | 70 | 30 | 70 | 90% | 15% | 15% | 15% | 20 | 80 | 60% | 60% | 90%
CCCCCC1C(O)CCC1CC(=O)OC (centres unmarked) [Methyl dihydrojasmolate] |  |  |  |  |  | 30 | 70 | 30 | 70 | 30 | 70 | 90% | 15% | 15% | 15% | 20 | 80 | 60% | 60% | 
